# Measured values from patent US8362000B2, “Azetidinyl diamides as monoacylglycerol lipase inhibitors” (Janssen Pharmaceutica NV, priority 2009, dated 2013).
# Changes are numbered by the printed parent chain. Read-outs that look alike come from different tables or passages of the source.
# What was measured:
# [1] = target: T1, purified wild type MGL (wt-MGLL 6H-11-313) (Homo sapiens, UniProt Q99685)
# T1 sequence (Q99685 1-303): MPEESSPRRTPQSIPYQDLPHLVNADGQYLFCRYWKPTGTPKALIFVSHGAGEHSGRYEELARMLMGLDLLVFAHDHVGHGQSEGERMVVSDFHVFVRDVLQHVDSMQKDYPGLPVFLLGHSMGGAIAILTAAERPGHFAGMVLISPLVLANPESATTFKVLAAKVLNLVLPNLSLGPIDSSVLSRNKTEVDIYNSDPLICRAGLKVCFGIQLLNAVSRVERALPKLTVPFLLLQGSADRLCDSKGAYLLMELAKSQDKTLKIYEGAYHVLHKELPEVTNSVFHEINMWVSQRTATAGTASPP
# mutant MGL = target: T2, mutant MGL (Homo sapiens, UniProt Q99685, L169S/L176S); experiment: MGL ThermoFluor assay - mutant; format: binding
# T2 sequence (Q99685 1-303 L169S/L176S): T1 sequence (Q99685 1-303) with L169S, L176S
# MGL = target: T3, MGL (Rattus norvegicus, UniProt Q8R431); experiment: 2-AG accumulation assay in rat brain homogenate; format: biochemical; conditions: rat brain homogenate; compound 1 μM; 2-AG accumulation as percent of vehicle; read-out: Rat Brain 2AG % VehCntrl (%) @ 1 μM
# T3 construct: one g rat brain was homogenized using a Polytron homogenizer; from tissue; host or cells: rat brain homogenate
# T3 sequence (Q8R431 1-303): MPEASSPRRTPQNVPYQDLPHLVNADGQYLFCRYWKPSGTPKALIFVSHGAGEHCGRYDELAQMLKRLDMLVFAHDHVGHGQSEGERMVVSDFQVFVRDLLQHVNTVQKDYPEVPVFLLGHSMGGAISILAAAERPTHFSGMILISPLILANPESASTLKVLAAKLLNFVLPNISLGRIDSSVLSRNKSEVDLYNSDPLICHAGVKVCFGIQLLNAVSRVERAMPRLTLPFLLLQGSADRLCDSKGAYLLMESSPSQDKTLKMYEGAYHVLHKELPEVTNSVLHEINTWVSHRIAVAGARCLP
# [2] = ThermoFluor concentration-response, read-out: MGL mutant ThermoFluor Kd
# [3] = ThermoFluor thermal stability binding assay, read-out: MGL mutant ThermoFluor Kd
# [4] = ThermoFluor, compound concentration measured by qNMR, read-out: MGL mutant ThermoFluor qKd (using qNMR conc.)
# [5] = compound concentration measured by qNMR, read-out: MGL mutant ThermoFluor qKd (using qNMR conc.)
# [6] = ThermoFluor, compound concentration measured by qNMR, read-out: MGL mutant ThermoFluor qKd (μM) (using qNMR conc.)
IC50 [1] [nM],Kd (mutant MGL; [2]) [µM],"2-AG accumulation, % of vehicle control at 1 µM (MGL) [%]",Kd (mutant MGL; [3]) [µM],Kd (mutant MGL; [4]) [µM],Kd (mutant MGL; [5]) [µM],Kd (mutant MGL; [6]) [µM],SMILES
< 5,,718,,,,0.043,Cc1sc(C(=O)N2CC(N3CCN(C(=O)c4nccs4)CC3)C2)cc1-c1cccc(C(F)(F)F)c1 [Cpd 1351]
< 5,,548,,,,0.008,Cc1cc(C(=O)N2CC(N3CCN(C(=O)c4nccs4)CC3)C2)sc1-c1ccc(C(F)(F)F)cc1 [Cpd 1352]
< 5,,545,,,,0.018,Cc1cc(C(=O)N2CC(N3CCN(C(=O)c4nccs4)CC3)C2)sc1-c1ccc(F)cc1 [Cpd 1353]
< 5,,750,,,,0.009,Cc1cc(C(=O)N2CC(N3CCN(C(=O)c4nccs4)CC3)C2)sc1-c1cccc(C(F)(F)F)c1 [Cpd 1354]
< 5,0.003,994,,,,,"O=C(c1ccc(-c2ccc(C(F)(F)F)s2)cc1)N1CC(N2CCN(C(=O)c3nccs3)CC2)C1 [Cpd 1361, 1-(1,3-Thiazol-2-ylcarbonyl)-4-[1-({4-[5-(trifluoromethyl)thiophen-2-yl]phenyl}carbonyl)azetidin-3-yl]piperazine]"
< 5,0.002,909,,,,,"O=C(c1ccc2c(c1)c(Cl)cn2-c1ccc(F)cc1)N1CC(N2CCN(C(=O)c3nccs3)CC2)C1 [Cpd 1365, 3-Chloro-1-(4-fluorophenyl)-5-({3-[4-(1,3-thiazol-2-ylcarbonyl)piperazin-1-yl]azetidin-1-yl}carbonyl)-1H-indole]"
< 5,,798,0.002,,,,O=C(c1ccc2c(ccn2-c2cc(F)c(F)c(F)c2)c1)N1CC(N2CCN(C(=O)c3nccs3)CC2)C1 [Cpd 1367]
< 5,,859,,,,0.001,Cc1cn(-c2cccc(F)c2)c2ccc(C(=O)N3CC(N4CCN(C(=O)c5nccs5)CC4)C3)cc12 [Cpd 1368]
< 5,,874,,,,0.002,O=C(c1ccc2c(ccn2-c2ccc(OC(F)(F)F)cc2)c1)N1CC(N2CCN(C(=O)c3nccs3)CC2)C1 [Cpd 1369]
< 5,,773,,,,0.013,O=C(c1ccc2c(ccn2-c2ccc(OC(F)(F)F)cc2)c1)N1CC(N2CCN(C(=O)c3cscn3)CC2)C1 [Cpd 1370]
< 5,,827,,,,0.003,O=C(c1ccc2c(ccn2-c2cc(F)cc(F)c2)c1)N1CC(N2CCN(C(=O)c3nccs3)CC2)C1 [Cpd 1371]
> 16700,,110,> 31.2,,,,Cc1cc(C(=O)N2CCN(C3CN(C(=O)c4ccc(-c5ccccc5)cc4)C3)CC2)no1 [Cpd 1465]

# Further lines, the compound ahead of its results:
SMILES,IC50 [1] [nM],Kd (mutant MGL; [2]) [µM],"2-AG accumulation, % of vehicle control at 1 µM (MGL) [%]",Kd (mutant MGL; [3]) [µM],Kd (mutant MGL; [4]) [µM],Kd (mutant MGL; [5]) [µM],Kd (mutant MGL; [6]) [µM]
O=C(c1nccs1)N1CCN(C2CN(C(=O)c3ccc(-c4ccccc4)cc3Cl)C2)CC1 [Cpd 1323],< 5,0.004,297,,,,
O=C(c1ccc(-c2cccc(C(F)(F)F)c2)cc1)N1CC(N2CCN(C(=O)c3ccc[nH]3)CC2)C1 [Cpd 1325],< 5,,575,0.006,,,
O=C(c1ccc(-c2nc(-c3ccccc3)cs2)cc1)N1CC(N2CCN(C(=O)c3nccs3)CC2)C1 [Cpd 1326],< 5,0.004,944,,,,
O=C(c1ccc(-n2nc3c(c2-c2ccc(Cl)cc2)CCCC3)cc1)N1CC(N2CCN(C(=O)c3nccs3)CC2)C1 [Cpd 1327],< 5,0.005,966,,,,
O=C(c1ccc(-c2nc(-c3ccc(Cl)cc3Cl)cs2)cc1)N1CC(N2CCN(C(=O)c3nccs3)CC2)C1 [Cpd 1329],< 5,0.006,834,,,,
O=C(c1ccc(-n2nc3c(c2-c2cccc(C(F)(F)F)c2)CCC3)cc1)N1CC(N2CCN(C(=O)c3nccs3)CC2)C1 [Cpd 1330],< 5,0.002,589,,0.005,,
O=C(c1ccc(-c2nc(-c3ccc(Cl)c(Cl)c3)cs2)cc1)N1CC(N2CCN(C(=O)c3nccs3)CC2)C1 [Cpd 1331],< 5,,803,,0.01,,
O=C(c1ccc2cc(-c3ccccc3)[nH]c2c1)N1CC(N2CCN(C(=O)c3nccs3)CC2)C1 [Cpd 1333],< 5,,824,,0.04,,
"O=C(c1ccc2c(ccn2-c2ccc(C(F)(F)F)cc2)c1)N1CC(N2CCN(C(=O)c3ccc[nH]3)CC2)C1 [Cpd 1339, 5-({3-[4-(1H-Pyrrol-2-ylcarbonyl)piperazin-1-yl]azetidin-1-yl}carbonyl)-1-[4-(trifluoromethyl)phenyl]-1H-indole]",< 5,0.013,574,,,,
O=C(c1cc2cc(-c3ccccc3)ccc2o1)N1CC(N2CCN(C(=O)c3nccs3)CC2)C1 [Cpd 1342],< 5,,346,0.136,,,
O=C(c1cc2cc(-c3cccc(C(F)(F)F)c3)ccc2o1)N1CC(N2CCN(C(=O)c3nccs3)CC2)C1 [Cpd 1343],< 5,,838,0.077,,,
O=C(c1ccc2c(-c3ccc(C(F)(F)F)cc3)c[nH]c2c1)N1CC(N2CCN(C(=O)c3cscn3)CC2)C1 [Cpd 1344],< 5,0.01,543,,,,
O=C(c1ccc2c(-c3cccc(C(F)(F)F)c3)c[nH]c2c1)N1CC(N2CCN(C(=O)c3cscn3)CC2)C1 [Cpd 1345],< 5,0.006,459,,,,
"Cc1c(C(=O)N2CC(N3CCN(C(=O)c4nccs4)CC3)C2)sc2ccc(-c3ccccc3)cc12 [Cpd 1346, 1-{1-[(3-Methyl-5-phenyl-1-benzothiophen-2-yl)carbonyl]azetidin-3-yl}-4-(1,3-thiazol-2-ylcarbonyl)piperazine]",< 5,0.002,406,,,,
O=C(c1nccs1)N1CCN(C2CN(C(=O)c3cc4ccn(-c5ccc(F)cc5)c4cc3F)C2)CC1 [Cpd 1349],< 5,0.005,846,,,0.006,
"O=C(c1cc(F)c2c(ccn2-c2ccc(F)cc2)c1)N1CC(N2CCN(C(=O)c3nccs3)CC2)C1 [Cpd 1350, 7-Fluoro-1-(4-fluorophenyl)-5-({3-[4-(1,3-thiazol-2-ylcarbonyl)piperazin-1-yl]azetidin-1-yl}carbonyl)-1H-indole]",< 5,,873,,,0.001,
